From patent US11767296B2, “Heteroaryl compounds as kinase inhibitor” (FUJIAN HAIXI PHARMACEUTICALS CO., LTD, priority 2018, dated 2023)

Experiments:
[1] = tested on: MC-38 transplanted tumors; experiment: Animal pharmacodynamics experiment: MC-38 transplanted tumors in C57 mice; assay type: in vivo; conditions: 2 weeks; for inhibition in vivo at 30 mg/kg: Mus musculus, MC-38, po, 336 h, compound alone, 30 mg/kg intragastrically daily, read-out: inhibition ratio (tumor size, MC-38 transplanted tumors); for inhibition ratio (tumor size, MC-38 transplanted tumors): compound 30 mg/kg intragastrically daily + anti-PD1 10 mg/kg i.p. once every 3 days
Procedure: Example 55: Animal Pharmacodynamics Experiment
In this study. MC-38 cell lines were inoculated in C57 mice
Experimental animal: C57 mice, male, 5-6 weeks old (18-22 g)
Inoculation: 2×10^6/0.1 mL, Matrigel is added in 3:1 ratio
PD1: InVivoMAb anti-mouse PD-1 (CD279). BioXCell
Group: On day 4 after inoculating, all the mice were divided into 13 groups, respectively model group, the anti-PD1 2 mg/kg group, anti-PD110 mg/kg group, testing compounds alone, and the tested compound combine with anti-PD1 10 mg/kg. Compounds were intragastrically administered daily at a dose of 30 mg/kg and anti-PD1 was intraperitoneally injected once every 3 days. The drug was administered continuously for 2 weeks. In model group, 80% glycerol+20% CMC-Na was given daily.
Results: The experimental results of anti-PD1 combined with the compounds prepared in the representative example 3-52 on the inhibition of tumor size of MC-38 transplanted tumors are as follows: […]

[2] = biological target: T1, CSF-1R (Homo sapiens, UniProt P07333); experiment: CSF-1R kinase assay (HTRF kinEASE TK); assay type: biochemical; conditions: ATP 2.5 uM, enzyme 0.012 ng/ul, read-out: In vitro inhibitory activity of CSF-1R IC50
T1 construct: purchased Invitrogen PV3249
T1 sequence (P07333 20-972): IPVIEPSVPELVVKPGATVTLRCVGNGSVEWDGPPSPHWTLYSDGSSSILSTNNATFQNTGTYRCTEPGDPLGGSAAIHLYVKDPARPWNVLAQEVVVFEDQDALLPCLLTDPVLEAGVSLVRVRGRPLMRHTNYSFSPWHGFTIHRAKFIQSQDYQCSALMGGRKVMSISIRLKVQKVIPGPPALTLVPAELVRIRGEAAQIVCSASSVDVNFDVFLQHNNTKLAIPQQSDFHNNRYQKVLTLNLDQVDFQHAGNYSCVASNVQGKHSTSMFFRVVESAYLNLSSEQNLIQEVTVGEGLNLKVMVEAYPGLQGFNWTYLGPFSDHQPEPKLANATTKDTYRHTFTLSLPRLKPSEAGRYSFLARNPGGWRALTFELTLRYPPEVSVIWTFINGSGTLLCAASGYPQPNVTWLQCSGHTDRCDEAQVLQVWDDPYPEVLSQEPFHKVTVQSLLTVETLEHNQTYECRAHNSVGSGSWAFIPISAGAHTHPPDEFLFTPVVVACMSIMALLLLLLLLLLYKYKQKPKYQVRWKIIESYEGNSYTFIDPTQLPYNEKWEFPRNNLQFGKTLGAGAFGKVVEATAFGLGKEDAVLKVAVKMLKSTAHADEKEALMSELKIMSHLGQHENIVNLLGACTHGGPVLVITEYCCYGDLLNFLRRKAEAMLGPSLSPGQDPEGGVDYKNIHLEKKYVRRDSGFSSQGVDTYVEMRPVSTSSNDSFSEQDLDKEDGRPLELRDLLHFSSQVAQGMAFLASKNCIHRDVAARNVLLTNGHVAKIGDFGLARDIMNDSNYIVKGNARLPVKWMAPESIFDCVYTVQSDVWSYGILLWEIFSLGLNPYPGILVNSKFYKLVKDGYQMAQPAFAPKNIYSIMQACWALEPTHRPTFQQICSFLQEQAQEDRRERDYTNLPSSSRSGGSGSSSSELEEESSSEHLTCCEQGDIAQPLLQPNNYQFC
Procedure: Example 53: CSF-1R Kinase Assay
I. Materials and Instruments
• 2104 EnVision® Multilabel Reader (PerkinElmer) • OptiPlate-384, White Opaque 384-well MicroPlate (Cat.6007290, PerkinElmer) • HTRF kinEASE TK (Cat.62TKOPEC, Cisbio) • CSF-1R(Cat. PV3249, Invitrogen) • ATP 10 mM (Cat. PV3227, Invitrogen) • DTT 1 M (Cat. D5545, Sigma) • MgCl2 1 M (Cat. M8266, Sigma) • MnCl2 1 M (Cat.244589. Sigma)
II. Experimental Procedure
Substrate-TK and ATP were diluted to 5 times of the reaction concentration by 1×Kinase Buffer. CSF1R enzyme was diluted to 5×enzyme solution by 1×kinase buffer. Sa-XL665 was diluted to 4×Sa-XL665 solution by Detection Buffer. 100×TK-Ab-Cryptate Solution TK-Ab-Cryptate was diluted to 100×TK-Ab-Cryptate solution by Detection Buffer. 2. Experimental Procedure After all reagents had been prepared according to the above method, except enzymes, the sample was added after equilibrium to room temperature. • a. Firstly, 2.5% DMSO solution was prepared by using 1×kinase buffer (the high concentration of DMSO will affect the reaction and control the final concentration of DMSO to 1%). Then the compounds were diluted by 2.5% DMSO solution corresponding to the enzyme. The screening concentration of the compounds was 4 times gradient dilution from 1000 nM, and 8 concentrations. In addition to the control pore, 4 microlitres of diluted solution containing 2.5% DMSO were added to the reaction pore and 4 microlitres of previously prepared solution containing 2.5% DMSO were added to the control pore. • b. 2 microlitres of previously prepared TK-biotin substrate solution was added to all reaction pore (the amount of substrate used for enzyme screening is shown in Table 15). • c. Adding 2 microlitres of CSF1R enzyme solution of corresponding concentration (the amount of enzyme is shown in Table 15) to all reaction pore except negative pore. The negative pore is supplemented with 2 microlitres of enzyme corresponding to 1 xkinase buffer. After mixing, the compound and enzyme can be fully combined by incubating at room temperature for 10 minutes. • d. Enzyme reaction was initiated by adding 2 microlitres ATP solution of corresponding concentration to all reaction pore. The reaction time was 30 minutes (the corresponding ATP concentration and reaction time at enzyme screening were shown in Table 15). • e. Preparing the test solution 5 minutes before the end of kinase reaction. Streptavidin-XL665 and TK antibody europium cryptate (1:100) were prepared with detection buffer in the kit (the corresponding concentration of detection reagent for enzyme screening is shown in Table 15). • f. After the kinase reaction, 5 microlitres of diluted Streptavidin-XL665 were added to all reaction pore, mixing, and then the diluted TK antibody europium cryptate solution was added immediately. • g. After 1 hour reaction at room temperature, the fluorescence signals (320 nm stimulation, 665 nm, 615 nm emission) were detected by ENVISION (Perkinelmer) instrument. The inhibition rate of each pore was calculated by full active pore and background signal pore, and the average value of complex pore was obtained. Meanwhile, the half inhibitory activity (IC50) of each compound was fitted by professional drawing analysis software PRISM 5.0. The Flow Chart of the Experiment is as Follows:
3. Data Analysis Emission Ratio (ER)=665 nm Emission signal/615 nm Emission signal Inhibitory rate=(ERpositive−ERsample)/(ERpositive−ERnegative)*100% Using Graphpad Prism 5 and log (inhibitor) vs. normalized response to fit IC50 curve and calculate IC50 value. The IC50 data of the compounds prepared in Representative Examples 3-52 are as follows (Table 18): […]

[3] = tested on: NFS-60 cells; experiment: NFS-60 cell assay (CCK proliferation, M-CSF stimulated); assay type: cell-based; conditions: Mus musculus, compound 0.5 uM, 72 h, 40 ng/mL M-CSF, read-out: inhibition ratio % (NFS-60 cell proliferation)
Procedure: Example 54: NFS-60 Cell Assay
1. Experimental Materials
Mouse Myelogenous Leukemia Cells (NFS-60)
Using DMSO to dissolve, and the required concentration was prepared with full culture medium without factors.
Penicillin-streptomycin: TRANS
Mouse M-CSF/CSF-1 Protein: Sino Biological Inc, No. 51112-MNAH
M-CSF: Qilu Pharmaceutical co., Ltd.
The logarithmic growth phase of NFS-60 cells (1640+10% FBS+40 ng/ml M-CSF+1% Penicillin-streptomycin) were centrifuged (1000 r/min) and cultured in a factor-free medium at 37° C., 5% CO2 for 24 hours. Centrifugating (1000 r/min), the culture medium was replaced by new culture medium including 40 ng/mL factors, and inoculated on 96-well plate by 2*10^4 cells/mL, 100 μL/hole. After 16 hours, the tested compounds were added 10 μL/hole, 3 duplicate holes per compound, 37° C., 5% CO2, continue to cultured for 72 h. Then 10 μL CCK reagent was added to each hole. After incubation for 4 hours, the absorbance of each hole was measured at 450 nm wavelength. According to Formula: Inhibitory rate (%)=(1-OD value of test pore/OD value of solvent control pore)×100% 3. Experimental Results The experimental results of the inhibition of NFS-60 cell proliferation by the compounds prepared in Example 3-52, 0.5 uM, are shown in the following table: […]

Cc1cncc(C(=O)Nc2cccc([C@@H](C)Oc3cc(Cl)cnc3N)c2)c1 [Compound 83, (R)-N-(3-(1-((2-amino-5-chloropyridin-3-yl)oxy)ethyl)-phenyl)-5-methylnicotinamide]
inhibition in vivo at 30 mg/kg [1]: < 10% | inhibition ratio (tumor size, MC-38 transplanted tumors) [1]: +++ (+++: ≥30%) | IC50 [2]: ≤ 50 nM

Cc1ccc(C(=O)Nc2cccc([C@@H](C)Oc3cc(-c4cccnc4)cnc3N)c2)cc1N(C)C [Compound 206, (R)-N-(3-(1-((6-amino-[3,3′-bipyridin]-5-yl)oxy)ethyl)phenyl)-3-(dimethylamino)-4-methylbenzamide]
IC50 [2]: ≤ 50 nM | inhibition at 0.5 µM [3]: ≥ 50%

C[C@@H](Oc1cc(-c2cnn(C)c2)cnc1N)c1cccc(NC(=O)c2cccc([S+](C)[O-])c2)c1 (stereo partly drawn) [Compound 367, N-(3-((R)-1-((2-amino-5-(1-methyl-1H-pyrazol-4-yl)pyridin-3-yl)oxy)ethyl)phenyl)-3-(methylsulfinyl)benzamide]
IC50 [2]: ≤ 50 nM | inhibition at 0.5 µM [3]: ≥ 50%

C[C@@H](Oc1cc(Cl)cnc1N)c1cccc(NC(=O)c2cccc(C3CC3)c2)c1 [Compound 86, (R)-N-(3-(1-((2-amino-5-chloropyridin-3-yl)oxy)ethyl)-phenyl)-3-cyclopropylbenzamide]
inhibition in vivo at 30 mg/kg [1]: < 10% | inhibition ratio (tumor size, MC-38 transplanted tumors) [1]: +++ (+++: ≥30%) | IC50 [2]: ≤ 50 nM

Cc1cccc(C(=O)Nc2cccc([C@H](C)Oc3cc(Cl)cnc3N)c2)c1 [Compound 54, (S)-N-(3-(1-((2-amino-5-chloropyridin-3-yl)oxy)ethyl)-phenyl)-3-methylbenzamide]
IC50 [2]: ≤ 50 nM | inhibition at 0.5 µM [3]: 10 to 50%

C[C@@H](Oc1cc(Cl)cnc1N)c1cccc(NC(=O)c2ccc3c(c2)S(=O)(=O)CC3)c1 [Compound 134, (R)-N-(3-(1-((2-amino-5-chloropyridin-3-yl)oxy)ethyl)-phenyl)-2,3-dihydrobenzo[b]thiophene-6-carboxamide 1,1-dioxide]
IC50 [2]: ≤ 50 nM | inhibition at 0.5 µM [3]: ≥ 50%

Cc1ccc(C(=O)Nc2cccc([C@@H](C)Oc3cc(Cl)cnc3N)c2)cc1C [Compound 132, (R)-N-(3-(1-((2-amino-5-chloropyridin-3-yl)oxy)ethyl)-phenyl)-3,4-dimethylbenzamide]
IC50 [2]: ≤ 50 nM | inhibition at 0.5 µM [3]: ≥ 50%

C[C@@H](Oc1cc(Cl)cnc1N)c1cccc(NC(=O)c2cc(C(F)(F)F)cc(S(C)(=O)=O)c2)c1 [Compound 150, (R)-N-(3-(1-((2-amino-5-chloropyridin-3-yl)oxy)ethyl)-phenyl)-3-(methylsulfonyl)-5-(trifluoromethyl)benzamide]
inhibition at 0.5 µM [3]: ≥ 50%

CSc1ccc(C(=O)Nc2cccc([C@@H](C)Oc3cc(-c4cnn(C)c4)cnc3N)c2)cc1 [Compound 181, (R)-N-(3-(1-((2-amino-5-(1-methyl-1H-pyrazol-4-yl)pyridin-3-yl)oxy)ethyl)phenyl)-4-(methylthio)benzamide]
IC50 [2]: ≤ 50 nM | inhibition at 0.5 µM [3]: ≥ 50%

C[C@@H](Oc1cc(-c2cnn(C)c2)cnc1N)c1cccc(NC(=O)c2cccc(S(C)(=O)=O)c2)c1 [Compound 168, (R)-N-(3-(1-((2-amino-5-(1-methyl-1H-pyrazol-4-yl)pyridin-3-yl)oxy)ethyl)phenyl)-3-(methylsulfonyl)benzamide]
inhibition at 0.5 µM [3]: ≥ 50%

C[C@@H](Oc1cc(-c2cccnc2)cnc1N)c1cccc(NC(=O)c2cccc(S(C)(=O)=O)c2)c1 [Compound 199, (R)-N-(3-(1-((6-amino-[3,3′-bipyridin]-5-yl)oxy)ethyl)phenyl)-3-(methylsulfonyl)benzamide]
inhibition at 0.5 µM [3]: ≥ 50%

C[C@@H](Oc1cc(-c2cccnc2)cnc1N)c1cccc(NC(=O)c2cccc(N(C)C)c2)c1 [Compound 205, (R)-N-(3-(1-((6-amino-[3,3′-bipyridin]-5-yl)oxy)ethyl)phenyl)-3-(dimethylamino)benzamide]
IC50 [2]: ≤ 50 nM | inhibition at 0.5 µM [3]: ≥ 50%

CSc1cccc(C(=O)Nc2cccc([C@@H](C)Oc3cc(-c4cnn(C)c4)cnc3N)c2)c1 [Compound 180, (R)-N-(3-(1-((2-amino-5-(1-methyl-1H-pyrazol-4-yl)pyridin-3-yl)oxy)ethyl)phenyl)-3-(methylthio)benzamide]
IC50 [2]: ≤ 50 nM | inhibition at 0.5 µM [3]: ≥ 50%

C[C@@H](Oc1cc(-c2cnn(C3CC3)c2)cnc1N)c1cccc(NC(=O)c2cccc(N(C)C)c2)c1 [Compound 212, (R)-N-(3-(1-((2-amino-5-(1-cyclo-propyl-1H-pyrazol-4-yl)pyridin-3-yl)oxy)ethyl)phenyl)-3-(dimethyl-amino)benzamide]
inhibition at 0.5 µM [3]: ≥ 50%

Cc1cc(C)cc(C(=O)Nc2cccc([C@@H](C)Oc3cc(Cl)cnc3N)c2)c1 [Compound 137, (R)-N-(3-(1-((2-amino-5-chloropyridin-3-yl)oxy)ethyl)-phenyl)-3,5-dimethylbenzamide]
inhibition at 0.5 µM [3]: ≥ 50%

COc1cccc(C(=O)Nc2cccc([C@@H](C)Oc3cc(Cl)cnc3N)c2)c1 [Compound 74, (R)-N-(3-(1-((2-amino-5-chloropyridin-3-yl)oxy)ethyl)-phenyl)-3-methoxybenzamide]
IC50 [2]: ≤ 50 nM | inhibition at 0.5 µM [3]: ≥ 50%

C[C@@H](Oc1cc(-c2cccnc2)cnc1N)c1cccc(NC(=O)c2cccc(C3CC3)c2)c1 [Compound 200, (R)-N-(3-(1-((6-amino-[3,3′-bipyridin]-5-yl)oxy)ethyl)phenyl)-3-cyclopropylbenzamide]
inhibition at 0.5 µM [3]: ≥ 50%

Cc1ccc(C(=O)Nc2cccc([C@@H](C)Oc3cc(Cl)cnc3N)c2)cc1S(C)(=O)=O [Compound 126, (R)-N-(3-(1-((2-amino-5-chloropyridin-3-yl)oxy)ethyl)-phenyl)-4-methyl-3-(methylsulfonyl)benzamide]
inhibition at 0.5 µM [3]: ≥ 50%
